How the values were obtained:
BA/F3 MPL W515L cells = experiment: Cell proliferation; assay type: cell-based, murine; settings: 0.25-1 μM
Description: (§1) These animals rapidly develop marked thrombocytosis and leukocytosis. At the time of sacrifice, MPL W515L expressing mice show splenomegaly and bone marrow fibrosis.

[1] = tested on: MPN patient CD34+ hematopoietic progenitor cells; experiment: Hematopoietic progenitor colony assay in methylcellulose; assay type: cell-based, human; settings: 1-2 μM, colonies counted after 14 days
Description: (§2) Hematopoietic progenitor colonies were counted after 14 days.

[2] = tested on: healthy control CD34+ cells; experiment: as above; assay type: cell-based, human; settings: 1-2 μM, 14 days
Description: as §2

rats = experiment: GLP toxicology studies in rats; assay type: in vivo, rat
Method: (§3) Dose calculations were determined from GLP toxicology studies in rats and non-GLP toxicology studies in dogs.

[3] = tested on: PC3 prostate adenocarcinoma xenograft; experiment: PC3 prostate adenocarcinoma mouse xenograft model; assay type: in vivo
[4] = tested on: HSC maintenance, TNFα and WNT signaling pathways; experiment: RNA-sequencing of LSK cells from treated homozygous JAK2 V617F mice; assay type: in vivo, mouse; settings: purified LSK cells, compared with vehicle
[5] = tested on: JAK2 V617F-positive HEL cells; experiment: Cell proliferation by viable cell counts; assay type: cell-based, human; settings: 5 days
[6] = tested on: JAK2 V617F-positive UKE-1 cells; experiment: Cell proliferation by viable cell counts; assay type: cell-based, human; settings: 5 days
SET-2 cells = experiment: Cell proliferation by viable cell counts; assay type: cell-based; settings: 5 days
PIM 2 = PIM 2 (Homo sapiens, UniProt Q9P1W9); experiment: PIM kinase biochemical profile (Ki)
[7] = tested on: BA/F3 cells expressing wild type JAK2; experiment: Cell proliferation by viable cell counts; assay type: cell-based, murine; settings: wild-type JAK2, higher concentrations, 5 days
[8] = tested on: HEL, BA/F3-EpoR-JAK2 V617F, UKE-1 and SET-2 cells expressing JAK2 V617F; experiment: Apoptosis by Annexin V staining and flow cytometry; assay type: cell-based; settings: 48 hours after treatment, JAK2 V617F-expressing cell lines
PC3 cells = experiment: Colony formation assay of prostate adenocarcinoma; assay type: cell-based; settings: Homo sapiens, PC-3; RPMI, pyruvate, 0.5% FBS; read-out: EC50 against PC3 cells (colony formation)
Method: PC3 cells were seeded in Roswell Park Memorial Institute (RPMI) media with pyruvate and 10% fetal bovine serum (FBS).

[9] = tested on: MPL mutant (MPL W515L) mice; experiment: MPL W515L transplantation mouse model; assay type: in vivo
Description: as §1

[10] = tested on: BA/F3 cells expressing wild type JAK2; experiment: Apoptosis by Annexin V staining and flow cytometry; assay type: cell-based; settings: 48 hours after treatment
parental BA/F3 cells = experiment: Cell proliferation; assay type: cell-based, murine
Flt3 = Flt3 (Homo sapiens, UniProt P36888); experiment: Flt3 inhibition (IC50); assay type: biochemical
[11] = tested on: BA/F3-EpoR-JAK2 V617F cells; experiment: Cell proliferation by viable cell counts; assay type: cell-based, murine; set-up: dose or concentration left out as unconfirmed; settings: Compound 1, 5 days
phospho-BAD = experiment: Reduction of phospho-BAD (PIM-1 biomarker); assay type: cell-based; settings: compared to Compound A
Description: The results of this assay are illustrated as a plot of the % of the control against the compound concentration (FIG. 15).

PIM 1 = PIM 1 (Homo sapiens, UniProt P11309); experiment: PIM kinase biochemical profile (Ki)
[12] = tested on: ruxolitinib-resistant BA/F3-EpoR-JAK2 V617F cells; experiment: Proliferation of ruxolitinib-resistant cells by viable cell counts; assay type: cell-based; settings: ruxolitinib 0.5-2 μM or Compound 1 0.25-1 μM, 5 days
[13] = tested on: homozygous JAK2 V617F knock-in mouse model of MF; experiment: Homozygous JAK2 V617F knock-in mouse model of MF; assay type: in vivo
Method: Bone marrow cells from homozygous JAK2 V617F knock-in mice were transplanted into lethally irradiated C57BL/6 recipients to obtain a cohort of MF mice with similar age. […] All mice were treated for 6 weeks.

PIM 3 = PIM 3 (Homo sapiens, UniProt Q86V86); experiment: PIM kinase biochemical profile (Ki)
dogs = experiment: Non-GLP toxicology studies in dogs (7-day repeat); assay type: in vivo
Method: as §3
In dogs, the highest non-severely toxic dose was not observed in 7-day repeat studies at doses as high as 200 mg/kg, which equates to 7400 mg per person or greater, calculated as: […]

Metabolic stability = assay type: in vitro ADME; settings: compared to Compound A
Phosphorylation of STAT5 = experiment: STAT5 phosphorylation immunoblot in ruxolitinib-resistant cells; assay type: cell-based; settings: ruxolitinib 0.5-2 μM
[14] = Compound 1 150 mg/kg, ruxolitinib 60 mg/kg, oral gavage once daily, 6 weeks

Flt3, sequence (P36888 27-993, species assumed): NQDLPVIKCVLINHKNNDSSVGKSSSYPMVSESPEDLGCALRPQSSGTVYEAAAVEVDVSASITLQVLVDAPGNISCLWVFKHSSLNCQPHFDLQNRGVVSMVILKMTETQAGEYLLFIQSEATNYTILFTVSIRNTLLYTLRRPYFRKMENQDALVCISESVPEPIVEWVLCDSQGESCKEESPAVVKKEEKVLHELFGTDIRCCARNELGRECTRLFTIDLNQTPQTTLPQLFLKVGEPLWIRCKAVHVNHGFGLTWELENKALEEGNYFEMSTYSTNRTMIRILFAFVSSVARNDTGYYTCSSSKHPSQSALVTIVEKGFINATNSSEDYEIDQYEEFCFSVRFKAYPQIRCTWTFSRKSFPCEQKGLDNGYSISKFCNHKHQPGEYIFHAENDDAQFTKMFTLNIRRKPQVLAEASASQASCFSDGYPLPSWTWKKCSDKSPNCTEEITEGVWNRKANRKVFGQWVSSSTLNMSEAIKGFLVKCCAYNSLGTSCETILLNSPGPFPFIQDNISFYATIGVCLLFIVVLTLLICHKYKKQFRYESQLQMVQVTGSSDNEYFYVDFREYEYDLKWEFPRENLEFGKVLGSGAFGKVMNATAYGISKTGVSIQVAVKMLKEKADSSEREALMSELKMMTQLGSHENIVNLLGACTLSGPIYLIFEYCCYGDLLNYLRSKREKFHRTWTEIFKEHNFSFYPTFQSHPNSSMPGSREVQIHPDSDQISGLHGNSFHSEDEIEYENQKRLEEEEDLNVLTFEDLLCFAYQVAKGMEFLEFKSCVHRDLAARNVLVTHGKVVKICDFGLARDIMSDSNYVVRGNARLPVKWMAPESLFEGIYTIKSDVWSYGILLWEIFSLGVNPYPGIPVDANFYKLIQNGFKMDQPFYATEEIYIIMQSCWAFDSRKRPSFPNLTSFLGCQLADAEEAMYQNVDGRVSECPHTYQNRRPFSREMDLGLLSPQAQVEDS
PIM 1, sequence (P11309 whole entry, species assumed): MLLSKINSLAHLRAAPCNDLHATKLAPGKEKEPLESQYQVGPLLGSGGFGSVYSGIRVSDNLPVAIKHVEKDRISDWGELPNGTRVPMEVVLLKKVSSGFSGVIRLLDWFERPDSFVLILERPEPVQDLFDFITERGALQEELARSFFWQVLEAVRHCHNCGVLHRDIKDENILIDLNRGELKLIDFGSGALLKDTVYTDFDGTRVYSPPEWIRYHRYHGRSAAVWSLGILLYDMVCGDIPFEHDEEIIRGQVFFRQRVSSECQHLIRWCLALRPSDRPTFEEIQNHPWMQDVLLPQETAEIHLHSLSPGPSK
PIM 2, sequence (Q9P1W9 whole entry, species assumed): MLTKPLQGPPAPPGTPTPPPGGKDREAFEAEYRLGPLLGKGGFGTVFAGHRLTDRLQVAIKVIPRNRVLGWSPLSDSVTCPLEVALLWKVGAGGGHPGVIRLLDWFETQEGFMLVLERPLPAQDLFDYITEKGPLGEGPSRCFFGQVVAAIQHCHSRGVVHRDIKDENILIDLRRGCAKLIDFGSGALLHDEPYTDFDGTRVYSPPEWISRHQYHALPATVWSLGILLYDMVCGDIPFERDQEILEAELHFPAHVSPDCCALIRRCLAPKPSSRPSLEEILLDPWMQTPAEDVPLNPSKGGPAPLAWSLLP

CC(C)(O)[C@H]1CC[C@H](Nc2ccc3ncc(-c4cccc(C(F)(F)F)c4)n3n2)CC1 [Compound 1, 2-((1R,4R)-4-((3-(3-(trifluoromethyl)phenyl)imidazo[1,2-b]pyridazin-6-yl)amino)cyclohexyl)propan-2-ol]
reduction of proliferation (BA/F3 MPL W515L cells): significantly reduced | inhibition of hematopoietic progenitor colonies [1]: significantly inhibited | effect on hematopoietic progenitor colonies [2]: minimal effect | human equivalent of rat severely toxic dose in 10 percent of animals (rats; average per person): 5286 mg | severely toxic dose in 10 percent of animals (rats; rat, GLP toxicology): 500 mg/kg | percentage of tumor growth inhibition (% TGI) ([3]; 125 mg/kg): 59% | percentage of tumor growth inhibition (% TGI) ([3]; 200 mg/kg): 40% | expression of genes relating to HSC maintenance, TNFα and WNT signaling pathways [4]: significantly downregulated | inhibition of proliferation [5]: markedly inhibited | inhibition of proliferation [6]: markedly inhibited | inhibition of proliferation (SET-2 cells): dose dependent inhibition | Ki (PIM 2): 239 nM | inhibition of proliferation [7]: only modestly inhibited | apoptosis (Annexin V) [8]: significant apoptosis | EC50 (PC3 cells): 143 nM | splenomegaly [9]: significant decrease | apoptosis (Annexin V) [10]: not in wild type JAK2-expressing BA/F3 cells | concentration reducing proliferation (parental BA/F3 cells): greater than 1 M | IC50 (Flt3): 279 nM | reduction of proliferation [11]: ~90% | potency at reducing phospho-BAD (phospho-BAD): more potent | Ki (PIM 1): 5 nM | inhibition of cell proliferation [12]: markedly inhibited | fibrosis in bone marrow and spleen (reticulin staining) ([13]; Compound 1 150 mg/kg, ruxolitinib 60 mg/kg, 6 weeks): marked reduction of fibrosis | neutrophil counts [13, 14]: caused reduction | peripheral blood white blood cell (WBC) counts [13, 14]: caused reduction | spleen size ([13]; homozygous JAK2 V617F mice, versus vehicle): significantly reduces | human equivalent of efficacious dose level in mouse myelofibrosis model (150 mg/kg) ([13]; per person): 925 mg | Ki (PIM 3): 42 nM | highest non-severely toxic dose (dogs; dog, 7-day repeat studies, not observed at doses as high as): ≥ 200 mg/kg | human equivalent of dog highest non-severely toxic dose (dogs; per person): ≥ 7400 mg | metabolic stability (Metabolic stability): improved metabolic stability

CN1CCC(CNc2ccc3ncc(-c4cccc(OC(F)(F)F)c4)n3n2)CC1 [Compound A, reference compound]
IC50 (Flt3): 3 nM | Ki (PIM 3): 20 nM

N#CC[C@H](C1CCCC1)n1cc(-c2ncnc3[nH]ccc23)cn1 [ruxolitinib]
inhibition of STAT5 phosphorylation (Phosphorylation of STAT5): not inhibited

— patent US20250082634A1, “PIM KINASE INHIBITORS FOR TREATMENT OF MYELOPROLIFERATIVE NEOPLASMS AND FIBROSIS ASSOCIATED WITH CANCER” (Sumitomo Pharma America, Inc., priority 2018, published 2025)
